Source: ChEMBL document CHEMBL1153832, “Identification and characterization of UK-201844, a novel inhibitor that interferes with human immunodeficiency virus type 1 gp160 processing” (Antimicrob Agents Chemother, 2007)

How the values were obtained:
[1] = tested on: Human immunodeficiency virus 1; assay: Antiviral activity against HIV1 bearing HIV1 NL4-3 envelope infected in human HeLa CD4 cells coexpressing LTR/beta-Gal gene assessed as reduction in virus-induced beta-galactosidase reporter gene activity after 72 hrs by single-cycle infection assay; assay type: functional, organism-based; details: Human immunodeficiency virus 1, HeLa
[2] = tested on: Human immunodeficiency virus 1; assay: Antiviral activity against HIV1 bearing VSV envelope infected in human HeLa CD4 cells coexpressing LTR/beta-Gal gene assessed as reduction in virus-induced beta-galactosidase reporter gene activity after 72 hrs by single-cycle infection assay; assay type: functional, organism-based; details: Human immunodeficiency virus 1, HeLa

## O=C(O)C1=CC(=C(c2ccc(O)c(C(=O)O)c2)c2ccc(O)c(C(=O)O)c2)C=CC1=O [AURINTRICARBOXYLIC ACID]
[1]
  EC50: 76 nM
[2]
  EC50: > 76000 nM
